Assay results from US20130090329A1, “Methods and Compositions for the Treatment of Psychotic Disorders Through the Identification of the Olanzapine Poor Response Predictor Genetic Signature” (SUREGENE, LLC, priority 2011, published 2013).
Marks after values point to notes of the source that are not given here.

Key:
[1] = system: patients suffering from schizophrenia and related disorders; assay: CATIE study: categorical responders (change in total PANSS ≦−10%, LOCF) by OPRP status; type: in vivo, human; settings: for Responders: change in total PANSS ≦−10%
Experimental: A total of 738 subjects consented to provide DNA for genetic study. Details regarding SNP genotyping and quality control have been recently published (Sullivan et al., 2008). Only retrospective genetic analyses, judged to be exempt from human studies requirements by an IRB, were conducted in the current study. For the genetic analyses presented herein, the inventors combined and evaluated drug response data for both Phase I and Phase IB of the CATIE study. All tested patients were studied using well established clinical endpoints comparing baseline, intermediate, and last observation carried forward (LOCF) for the PANSS scores using CATIE data. LOCF analysis is a commonly used clinical endpoint for clinical trials for neuropsychiatric drugs, with particular changes in PANSS scores being used to indicate clinically significant response (Leucht et al., 2009). […] As described above CATIE patients were studied using well established clinical endpoints comparing baseline, intermediate, and last observation carried forward (LOCF) for the PANSS scores.

[2] = system: patients suffering from schizophrenia and related disorders; assay: CATIE study: worsening of symptoms (LOCF delta PANSS ≧0%) by OPRP status; type: in vivo, human; settings: for Worsening: delta PANSS ≧0%
Experimental: (§1) A total of 738 subjects consented to provide DNA for genetic study. […] Only retrospective genetic analyses, judged to be exempt from human studies requirements by an IRB, were conducted in the current study. For the genetic analyses presented herein, the inventors combined and evaluated drug response data for both Phase I and Phase IB of the CATIE study. All tested patients were studied using well established clinical endpoints comparing baseline, intermediate, and last observation carried forward (LOCF) for the PANSS scores using CATIE data. LOCF analysis is a commonly used clinical endpoint for clinical trials for neuropsychiatric drugs, with particular changes in PANSS scores being used to indicate clinically significant response (Leucht et al., 2009).
The inventors also examined the impact of the OPRP status on whether patients' symptoms actually got worse when treated with olanzapine. This is an important safety consideration for antipsychotic drugs response, and failure of a drug to display the desired clinical response on a specific subset of patients could impact the drug label, being contraindicated for a particular subset of patients (see Example 5: “Risk Management Involving the OPRP Genetic Test). […]

[3] = system: patients suffering from schizophrenia and related disorders; assay: CATIE study: percent change in total PANSS from baseline to LOCF, segmented by OPRP genetic signature status; type: in vivo, human; settings: for Mean difference between olanzapine and labelled atypical antipsychotic, CATIE OPRP−: OPRP negative subjects; for Mean difference between olanzapine and labelled atypical antipsychotic, CATIE OPRP− / Mean difference between olanzapine and labelled atypical antipsychotic, CATIE unsegemented: delta PANSS, negative = olanzapine superior
Source text: Genotype and phenotype data for the CATIE trial were recently made available to qualified researchers through the NIMH Center for Collaborative Genetic Studies on Mental Disorders. The sample consisted of a total of 738 patients. For the present study, the inventors assigned OPRP status to 628 subjects, including 411 subjects of self-reported European ancestry and 217 subjects of self-reported African ancestry. Further details on the patient population are described in the study by Sullivan and coworkers (Sullivan et al., 2008). The CATIE SNP genotype data evaluated included a total of 492,900 SNPs located throughout the genome.
The design of the CATIE study has been described in detail by others (Lieberman et al., 2005; Stroup et al., 2003). […] Subjects that failed Phase I treatment with the typical antipsychotic perphenazine were treated differently than those subjects that failed phase I treatment with an atypical antipsychotic. Instead of entering into Phase II of the trial, subjects who switched from perphenazine entered Phase IB. […] Subjects who failed Phase IB then entered Phase II.
as §1
Using the clinical data from the CAIE trial, the inventors derived several different metrics used for quantifying response in clinical trials of antipsychotic medications. The most commonly used psychometric instrument is the Positive and Negative Syndrome Scale (PANSS), a 30-item semi-quantitative instrument scored by clinical professionals (Kay et al., 1987). The greater the decrease in PANSS score, the better the clinical response. The most direct measure of clinical response is absolute change in PANSS score. In addition to absolute change, the improvement is often reported as a percentage change from baseline PANSS score.
To examine the relationship of genotypes to drug response the inventors used the publically available PLINK software (Purcell et al., 2007; available on the world wide web at pngu.mgh.harvard.edu/purcell/plink/) and Helix tree (Version 6.4.1; Golden Helix, Bozeman, Mont.). The inventors used Last observation Carry Forward (LOCF) delta PANSS values as a measure of response to antipsychotic treatment. […] The inventors refined the test further by conducting association analysis on using only those subjects that comprised the TT genotype of rs11960832.
As mentioned previously, the mean change in absolute or percent PANSS provides an important measure of efficacy in patients undergoing antipsychotic treatments. Indeed, many pivotal trials in the psychosis field used absolute and/or percentage change in PANSS Score as the primary endpoint (Leucht et al., 2009).

psychopathology (PANSS) [4] = settings: weighted mean difference in PANSS score (absolute); negative = olanzapine superior; cited from earlier work
psychopathology = settings: meta-analysis, Davis et al. (2003); cited from earlier work
psychopathology (PANSS) [5] = settings: meta-analysis, population not segmented by OPRP; negative = greater reduction in PANSS; cited from earlier work
[6] = among antipsychotic medications; cited from earlier work
[7] = OPRP Negative subjects, CATIE Phase I and IB, more negative = greater improvement
[8] = OPRP Positive subjects, CATIE Phase I and IB, more negative = greater improvement
[9] = comparator = OPRP positive subjects treated with the labelled drug, positive = poorer response to olanzapine
[10] = olanzapine OPRP positive versus labelled drug OPRP positive, CATIE
[11] = Caucasian patients, OPRP Negative, LOCF
[12] = Caucasian patients, OPRP Negative
[13] = Caucasian patients, OPRP Positive, LOCF
[14] = Caucasian patients, OPRP Positive
[15] = Caucasian subjects, OPRP Negative
[16] = Caucasian subjects, OPRP Positive

| SMILES | Number of individuals with change in total PANSS ≦−10% (responders) ([1]; OPRP Negative) | Number of individuals with change in total PANSS ≧−10% (non-responders) ([1]; OPRP Negative) | Responders ([1]; OPRP Negative) | Number of individuals with change in total PANSS ≦−10% (responders) ([1]; OPRP Positive) | Number of individuals with change in total PANSS ≧−10% (non-responders) ([1]; OPRP Positive) | Responders ([1]; OPRP Positive) | Number of individuals with delta PANSS ≦0% (non-worsening) ([2]; OPRP Negative, LOCF) | Number of individuals with delta PANSS ≧0% (worsening symptoms) ([2]; OPRP Negative, LOCF) | Worsening ([2]; OPRP Negative, LOCF) | Number of individuals with delta PANSS ≦0% (non-worsening) ([2]; OPRP Positive, LOCF) | Number of individuals with delta PANSS ≧0% (worsening symptoms) ([2]; OPRP Positive, LOCF) | Worsening ([2]; OPRP Positive, LOCF) | DELTA PANSS % (mean change in PANSS score from baseline to LOCF) [3, 7] | DELTA PANSS % (mean change in PANSS score from baseline to LOCF) [3, 8] | Mean difference between olanzapine and labelled atypical antipsychotic, CATIE OPRP− [3] | Mean difference in delta PANSS: olanzapine-treated OPRP positive group minus comparator group [3, 9] | Mean difference between olanzapine and labelled atypical antipsychotic, CATIE unsegemented [3] | Effect size (mean difference / standard deviation) [3, 10] | Mean difference between olanzapine and labelled atypical antipsychotic, Meta-analysis (psychopathology (PANSS) [4]) | Effect Size vs. Placebo (psychopathology (PANSS) [5]) | other results |
| --- | --- | --- | --- | --- | --- | --- | --- | --- | --- | --- | --- | --- | --- | --- | --- | --- | --- | --- | --- | --- | --- |
| O=C1Cc2cc(CCN3CCN(c4nsc5ccccc45)CC3)c(Cl)cc2N1 [Ziprasidone] | 16 | 53 | 23%^++++ | 2 | 9 | 18% | 35 | 34 | 49%^++++ | 7 | 4 | 36% | −1.5^++++ % | −0.5% | −10.1 | 4.8 | −4.9 | 0.2^b | −8.3 | −0.48 | Effect size (mean difference / standard deviation) ([3]; olanzapine OPRP positive versus labelled drug OPRP positive, CATIE, listed as ziprasidone): 0.2; Effect Size vs. FGA (first generation antipsychotics) (psychopathology): −0.04 |
| CN1CCN(C2=Nc3cc(Cl)ccc3Nc3ccccc32)CC1 [Clozapine] | – | – | – | – | – | – | – | – | – | – | – | – | – | – | – | – | – | – | – | – | Number of individuals with delta PANSS ≦0% (non-worsening) [2, 11]: 25; Number of individuals with delta PANSS ≧0% (worsening symptoms) [2, 11]: 9; Worsening [2, 12]: 26%*; Number of individuals with delta PANSS ≦0% (non-worsening) [2, 13]: 0; Number of individuals with delta PANSS ≧0% (worsening symptoms) [2, 13]: 2; Worsening [2, 14]: 100%; DELTA PANSS % (mean change in PANSS score from baseline to LOCF) [3, 15]: −13.1%; DELTA PANSS % (mean change in PANSS score from baseline to LOCF) [3, 16]: 28%; Incidence of metabolic side-effects [6]: greatest incidence of metabolic side-effects |
| Cc1cc2c(s1)Nc1ccccc1N=C2N1CCN(C)CC1 [Olanzapine] | 73 | 66 | 53%* | 1 | 25 | 4% | 113 | 26 | 19%* | 8 | 18 | 69% | −11.6% | 4.3% | – | – | – | – | – | – | Effect size, olanzapine-treated OPRP positive patients compared to various other OPRP-drug combinations ([3]; CATIE study, range over comparisons): 0.2 to 1.0; Mean difference in delta PANSS: olanzapine-treated OPRP positive group minus comparator group ([3]; comparator = olanzapine-treated OPRP negative subjects): 15.9; Effect size (mean difference / standard deviation) ([3]; olanzapine OPRP positive versus olanzapine OPRP negative, CATIE): 1.0^a; Effect size (mean difference / standard deviation) ([3]; olanzapine OPRP positive versus olanzapine OPRP negative, CATIE, listed as olanzapine): 1.0; Incidence of metabolic side-effects [6]: greatest incidence of metabolic side-effects |
| Cc1nc2n(c(=O)c1CCN1CCC(c3noc4cc(F)ccc34)CC1)CCCC2 [Risperidone] | 55 | 91 | 38%^+ | 7 | 12 | 35%^ | 91 | 55 | 38%^+++ | 13 | 7 | 35%^ | – | – | – | – | – | – | −1.9 | −0.59 | – |
| OCCN1CCN(CCCN2c3ccccc3Sc3ccc(Cl)cc32)CC1 [Perphenazine] | 39 | 71 | 35%^+ | 5 | 7 | 42%^^ | 65 | 45 | 41%^+++ | 9 | 3 | 25%^ | −4.2^+++ % | −7.7^ % | – | 12 | – | 0.7 | – | – | – |
| OCCOCCN1CCN(C2=Nc3ccccc3Sc3ccccc32)CC1 [Quetiapine] | 48 | 99 | 33%^+++ | 4 | 14 | 22% | 95 | 62 | 42%^+++ | 9 | 9 | 50% | −3.2^++++ % | −1.2% | −8.4 | 5.5 | −6.2 | 0.3^b | −3.7 | −0.42 | Number of individuals with delta PANSS ≦0% (non-worsening) [2, 11]: 85; Number of individuals with delta PANSS ≧0% (worsening symptoms) [2, 11]: 62; Worsening [2, 12]: 42%*; Number of individuals with delta PANSS ≦0% (non-worsening) [2, 13]: 2; Number of individuals with delta PANSS ≧0% (worsening symptoms) [2, 13]: 7; Worsening [2, 14]: 78%; Response of OPRP positive group compared with OPRP negative group (percent change in PANSS) ([3]; Caucasian subjects, CATIE): responded worse; DELTA PANSS % (mean change in PANSS score from baseline to LOCF) [3, 15]: −0.6%; DELTA PANSS % (mean change in PANSS score from baseline to LOCF) [3, 16]: 12%; Effect size (mean difference / standard deviation) ([3]; olanzapine OPRP positive versus labelled drug OPRP positive, CATIE, listed as quetiapine): 0.3; Effect Size vs. FGA (first generation antipsychotics) (psychopathology): 0.01 |
